Laboratory results as given in ChEMBL document CHEMBL1144405, “Synthesis and cellular studies of nonaggregated water-soluble phthalocyanines” (J Med Chem, 2005).

Key:
HEp-2 [1] = assay: Inhibitory concentration was measured against human HEp2 cells; upon exposure to light (1 J/cm**2); assay type: functional, cell-based; conditions: HEp-2, light or radiation study
HEp2 (human) = assay: Inhibitory concentration was measured against human HEp2 cells; upon exposure to light (1 J/cm**2); conditions: HEp2, light or radiation study
V79 = assay: Percent of cell viability for the compound was measured in hamster V79 cells; assay type: functional, Cricetulus griseus
HEp-2 [2] = assay: Percent of cell viability for the compound was measured in human HEp2 cells; assay type: functional

Row | IC50 (HEp-2 [1]) | IC50 (HEp2 (human)) | Structure (SMILES) | Viability (V79) | Viability (HEp-2 [2])
1 | 4.5 µM | 4.5 µM | O=C([O-])c1cc(Oc2cc3c(cc2Oc2cc(C(=O)[O-])cc(C(=O)O)c2)-c2nc-3nc3[nH]c(nc4nc(nc5[nH]c(n2)c2cc(Oc6cc(C(=O)[O-])cc(C(=O)[O-])c6)c(Oc6cc(C(=O)[O-])cc(C(=O)O)c6)cc52)-c2cc(Oc5cc(C(=O)[O-])cc(C(=O)O)c5)c(Oc5cc(C(=O)[O-])cc(C(=O)O)c5)cc2-4)c2cc(Oc4cc(C(=O)[O-])cc(C(=O)O)c4)c(Oc4cc(C(=O)[O-])cc(C(=O)[O-])c4)cc32)cc(C(=O)[O-])c1.[Na+].[Na+].[Na+].[Na+].[Na+].[Na+].[Na+].[Na+].[Na+].[Zn+2] | 80% | 80%
2 |  |  | O=C(O)c1cc(Oc2cc3c(cc2Oc2cc(C(=O)O)cc(C(=O)O)c2)-c2nc-3nc3[n-]c(nc4nc(nc5[n-]c(n2)c2cc(Oc6cc(C(=O)O)cc(C(=O)O)c6)c(Oc6cc(C(=O)O)cc(C(=O)O)c6)cc52)-c2cc(Oc5cc(C(=O)O)cc(C(=O)O)c5)c(Oc5cc(C(=O)O)cc(C(=O)O)c5)cc2-4)c2cc(Oc4cc(C(=O)O)cc(C(=O)O)c4)c(Oc4cc(C(=O)O)cc(C(=O)O)c4)cc32)cc(C(=O)O)c1.[Zn+2] | > 80% | 80%
3 |  |  | O=C([O-])c1cc(Oc2cc3c(cc2Oc2cc(C(=O)[O-])cc(C(=O)[O-])c2)-c2nc-3nc3[nH]c(nc4nc(nc5[nH]c(n2)c2cc(Oc6cc(C(=O)[O-])cc(C(=O)[O-])c6)c(Oc6cc(C(=O)[O-])cc(C(=O)[O-])c6)cc52)-c2cc(Oc5cc(C(=O)[O-])cc(C(=O)[O-])c5)c(Oc5cc(C(=O)[O-])cc(C(=O)[O-])c5)cc2-4)c2cc(Oc4cc(C(=O)[O-])cc(C(=O)[O-])c4)c(Oc4cc(C(=O)[O-])cc(C(=O)[O-])c4)cc32)cc(C(=O)[O-])c1.[Na+].[Na+].[Na+].[Na+].[Na+].[Na+].[Na+].[Na+].[Na+].[Na+].[Na+].[Na+].[Na+].[Na+].[Na+].[Na+].[Zn] | 80% | 80%
